71 compounds from the PolyMetriX glass transition set can be followed below.

SMILES strings stand for the structures.

On to `*/C(Cl)=C(/*)CCCCCC` (repeat unit), for which the glass transition temperature amounted to 150.00 °C.
`*CC#CC#CCOc1cccc(C(=O)OCCN(CCOC(=O)c2cccc(O*)c2)c2ccc(/N=N/c3ccc(C#N)cc3)cc2)c1` (repeat unit) had a glass transition temperature of 50.00 °C.
On to `*CC(=O)Nc1ccc(NC(=O)CN2C(=O)c3ccc(C(=O)c4ccc5c(c4)C(=O)N(*)C5=O)cc3C2=O)cc1` (repeat unit), for which the glass transition temperature was 250.00 °C.
As to `*CC(=O)Nc1ccc(Oc2c(F)c(F)c(Oc3ccc(NC(=O)c4ccc5c(c4)C(=O)N(*)C5=O)cc3)c(F)c2F)cc1` (repeat unit), the glass transition temperature came to 254.00 °C.
`*CC(O)CN(*)c1ccccc1` (repeat unit) registered a glass transition temperature of 78.50 °C.
Take `*CCC(=O)Nc1ccc(NC(=O)CCN2C(=O)c3ccc(C(=O)c4ccc5c(c4)C(=O)N(*)C5=O)cc3C2=O)cc1` (repeat unit): the glass transition temperature came out at 237.00 °C.
`*CCC(=O)Nc1ccc(Oc2ccc(NC(=O)CCN3C(=O)c4ccc(C(=O)c5ccc6c(c5)C(=O)N(*)C6=O)cc4C3=O)cc2)cc1` (repeat unit) yielded a glass transition temperature of 232.00 °C.
On to `*CCC(C)C(C)CCNC(=O)c1cc(C(=O)N*)cc(C(C)(C)C)c1` (repeat unit), for which the glass transition temperature was 173.00 °C.
Take `*CCC(C)O[Si](C)(C)O*` (repeat unit): the glass transition temperature was -88.00 °C.
As to `*CCC(C)S*` (repeat unit), the glass transition temperature is -59.00 °C.
To `*CCC(CC)CC(C)CNC(=O)c1ccc(C(=O)N*)cc1` (repeat unit) belongs 139.00 °C; to `*CCCC(=O)Nc1ccc(Oc2cccc(NC(=O)CCCN3C(=O)c4ccc(C(=O)c5ccc6c(c5)C(=O)N(*)C6=O)cc4C3=O)c2)cc1` (repeat unit), 188.00 °C; to `*CCCC(=O)Oc1ccc(-c2ccc(OC(=O)c3ccc4c(c3)C(=O)N(*)C4=O)cc2)cc1` (repeat unit), 132.00 °C.
The compound `*CCCC(C)(C)CCCn1c(=O)c2cc3c(=O)n(*)c(=O)c3cc2c1=O` (repeat unit) returned a glass transition temperature of 135.00 °C.
`*CCCC(C)(C)CNC(=O)CCCCCC(=O)N*` (repeat unit) displayed a glass transition temperature of 70.50 °C.
For `*CCCC(C)(C)CNC(=O)CCCCCCCC(=O)N*` (repeat unit), the glass transition temperature came out at 63.00 °C.
To `*CCCC(C)O[Si](C)(C)O*` (repeat unit) belongs -81.00 °C.
To `*CCCC(CC)CCNC(=O)c1ccc(C(=O)N*)cc1` (repeat unit) belongs 135.00 °C.
For `*CCCCCCCCCCCCCCNC(=O)CCc1ccc(CCC(=O)N*)cc1` (repeat unit) the value was 85.00 °C; for `*CCCCCCCCCCCCNC(=O)CCc1ccc(CCC(=O)N*)cc1` (repeat unit), 85.00 °C.
`*CCCCOC(=O)CCSCCCCCCSCCC(=O)O*` (repeat unit) gave a glass transition temperature of -73.00 °C.
The compound `*CCCCSSCCCCO*` (repeat unit) showed a glass transition temperature of -76.00 °C.
For `*CCCCSSCCCCOCO*` (repeat unit), the glass transition temperature is -76.00 °C.
For `*CCCN(*)C(=O)C(F)(F)C(F)(F)C(F)(F)C(F)(F)C(F)(F)C(F)(F)C(F)(F)F` (repeat unit) the value was 25.00 °C.
Compound `*CCCN(*)C(C)=O` (repeat unit) had a glass transition temperature of 30.00 °C.
For the compound `*CCCN1C(=O)C2C3C=CC(C4C(=O)N(*)C(=O)C34)C2C1=O` (repeat unit), the glass transition temperature was determined as 210.00 °C.
`*CCCP(CCCNC(=O)CCCCC(=O)N*)CC(C)C` (repeat unit) yielded a glass transition temperature of 71.00 °C.
As for `*CCC[Si](*)(C)C[Si](C)(C)C` (repeat unit), the glass transition temperature was -51.00 °C.
The compound `*CCC[Si](*)(C)c1ccccc1` (repeat unit) displayed a glass transition temperature of -1.50 °C.
In turn, `*CCC[Si](*)(c1cccc2ccccc12)C1CCCCC1` (repeat unit) had a glass transition temperature of 47.50 °C.
To `*CCN(*)C` (repeat unit) belongs -31.00 °C; to `*CCN(*)C(=O)C12CC3CC(CC(C3)C1)C2` (repeat unit), 123.00 °C.
`*CCN(*)C(=O)CCCCC` (repeat unit) had a glass transition temperature of 7.00 °C.
Compound `*CCN(*)C(=O)CCCCCCC` (repeat unit) displayed a glass transition temperature of 10.00 °C.
For `*CCN(*)C(=O)CCCCCCCCCCCCCCCCC` (repeat unit) the value was 10.00 °C; for `*CCN(*)C(=O)c1c(F)c(F)c(F)c(F)c1F` (repeat unit), 136.00 °C; for `*CCN(*)C(=O)c1c(F)c(F)cc(F)c1F` (repeat unit), 122.00 °C.
`*CCN(*)C(=O)c1c(F)cc(F)c(F)c1F` (repeat unit) displayed a glass transition temperature of 122.00 °C.
On to `*CCN(*)C(=O)c1cc(F)c(F)c(F)c1` (repeat unit), for which the glass transition temperature was 65.00 °C.
`*CCN(*)C(=O)c1cc(F)cc(F)c1F` (repeat unit) showed a glass transition temperature of 110.00 °C.
Consider `*CCN(*)C(=O)c1ccc(F)c(F)c1F` (repeat unit), for which the glass transition temperature worked out at 102.00 °C.
Turning to `*CCN(*)C(=O)c1ccc(F)cc1F` (repeat unit), the glass transition temperature turned out to be 108.00 °C.
For `*CCN(*)C(=O)c1cccc(F)c1F` (repeat unit) the value was 110.00 °C; for `*CCN(*)C(=O)c1ccccc1` (repeat unit), 111.00 °C.
In turn, `*CCN(CCN1C(=O)c2ccc(C(c3ccc4c(c3)C(=O)N(*)C4=O)(C(F)(F)F)C(F)(F)F)cc2C1=O)c1ccc(/N=N/c2ccc(C#N)cc2)cc1` (repeat unit) displayed a glass transition temperature of 213.00 °C.
To `*CCN(CCN1C(=O)c2ccc(C(c3ccc4c(c3)C(=O)N(*)C4=O)(C(F)(F)F)C(F)(F)F)cc2C1=O)c1ccc(/N=N/c2ccc(C=O)cc2)cc1` (repeat unit) belongs 170.00 °C.
`*CCN(CCOC(=O)CCC#CC#CCCC(=O)O*)c1ccc(/N=N/c2c(C)cc(/N=N/c3ccc(C#N)cc3)cc2C)cc1` (repeat unit) yielded a glass transition temperature of 63.00 °C.
`*CCN(CCOC(=O)NCC1(C)CC(NC(=O)O*)CC(C)(C)C1)c1ccc(/N=N/c2ccc(B(c3c(C)cc(C)cc3C)c3c(C)cc(C)cc3C)cc2)cc1` (repeat unit) returned a glass transition temperature of 146.00 °C.
For `*CCN(CCOC(=O)c1ccc(C(=O)O*)cc1)c1ccc(/N=N/c2ccc(-c3nc4ccc([N+](=O)[O-])cc4n3CC)cc2)cc1` (repeat unit) the value was 149.00 °C.
On to `*CCOCCOC(=O)CCSCCC(=O)O*` (repeat unit), for which the glass transition temperature is -33.00 °C.
`*CCOCCOCCOCCOC(=O)CCSCCC(=O)O*` (repeat unit) came in with a glass transition temperature of -38.00 °C.
Turning to `*CC[Si](C)(C)O[Si]1(*)O[Si](C)(C)O[Si](C)(C)O1` (repeat unit), the glass transition temperature was -64.00 °C.
For `*CCc1cc(C)c(*)cc1C` (repeat unit) the value was 100.00 °C; for `*CCc1cc(Cl)c(*)c(Cl)c1` (repeat unit), 110.00 °C.
`*CCc1ccc(*)o1` (repeat unit) gave a glass transition temperature of 25.50 °C.
For `*CCc1ccc(*)s1` (repeat unit) the value was 26.00 °C; for `*Cc1cc(C23CC4CC(CC(C4)C2)C3)cc(CN(*)c2ccccc2)c1O` (repeat unit), 109.40 °C.
Compound `*Nc1ccc(NC(=O)c2cc(NC(=O)c3ccncc3)cc(C(*)=O)c2)cc1` (repeat unit) had a glass transition temperature of 327.00 °C.
On to `*OC(C)CCOC(=O)C(CCCCCCOc1ccc(/N=C/c2ccc([N+](=O)[O-])cc2)cc1)C(*)=O` (repeat unit), for which the glass transition temperature was determined as 3.00 °C.
For `*OC(C)CCOC(=O)c1ccc(-c2ccc(C(*)=O)cc2)cc1` (repeat unit) the value was 92.50 °C; for `*O[Si](C)(C)CCCNC(=O)C(=O)NCCC[Si](*)(C)C` (repeat unit), -46.48 °C.
In the case of `*O[Si](C)(C)CC[Si](*)(C)C` (repeat unit), the glass transition temperature was -88.00 °C.
`*Oc1ccc(C(=O)NCC(C)(C)CCCNC(=O)c2ccc(*)cc2)cc1` (repeat unit) registered a glass transition temperature of 155.00 °C.
`*Oc1ccc(C(C)(C)c2ccc(OC(=O)OCCN(CCOC(*)=O)c3ccc(OC)cc3)cc2)cc1` (repeat unit) gave a glass transition temperature of 60.00 °C.
In turn, `*Oc1ccc(CC(NC(=O)CCc2ccc(OC(=O)CCC(*)=O)cc2)C(=O)OCc2ccccc2)cc1` (repeat unit) displayed a glass transition temperature of 78.00 °C.
`*Oc1ccc(CC(NC(=O)CCc2ccc(OC(=O)CCCCCCCCC(*)=O)cc2)C(=O)OCc2ccccc2)cc1` (repeat unit) showed a glass transition temperature of 42.00 °C.
As to `*Oc1ccc(NC(=O)c2cc(C(=O)Nc3ccc(*)cc3)c(C(=O)O)cc2C(=O)O)cc1` (repeat unit), the glass transition temperature came out at 207.40 °C.
Take `*Oc1ccc(NC(=O)c2cc(NC(=O)CCCN3C(=O)c4ccccc4C3=O)cc(C(=O)Nc3ccc(*)cc3)c2)cc1` (repeat unit): the glass transition temperature came to 225.00 °C.
Consider `*Oc1ccc(Oc2ccc(NC(=O)c3cc(C(=O)Nc4ccc(*)cc4)cc(C(C)(C)C)c3)cc2)cc1` (repeat unit), for which the glass transition temperature was determined as 195.50 °C.
For `*c1ccc(NC(=O)CN2C(=O)c3ccc(C(c4ccc5c(c4)C(=O)N(CC(=O)Nc4ccc(-c6nnc(*)o6)cc4)C5=O)(C(F)(F)F)C(F)(F)F)cc3C2=O)cc1` (repeat unit) the value was 280.00 °C.
For `*c1ccc2c(c1)C(=O)N(c1ccc(OCCN(CCOc3ccc(N4C(=O)c5ccc(C(*)(C(F)(F)F)C(F)(F)F)cc5C4=O)cc3)c3ccc(C(C#N)=C(C#N)C#N)cc3)cc1)C2=O` (repeat unit) the value was 218.00 °C.
